Data taken from PMC10518255, “A first-in-class pan-lysyl oxidase inhibitor impairs stromal remodeling and enhances gemcitabine response and survival in pancreatic cancer” (Nature Cancer, 2023).
Several values for one entry are separate records, joined by “and”; a condition that tells them apart may be missing. Equal entries are not always repeated.

Tests used:
KPC mouse model of PDAC = assay: Overt metastatic lesions observed during necropsy, KPC survival study; assay type: in vivo; conditions: for Ascites / overt metastatic lesions, Diaphragm / overt metastatic lesions, Liver / overt metastatic lesions, Lungs / overt metastatic lesions, Small intestine: KPC mice
Description: Fig. 4 PXS-5505 administered in a KPC in vivo survival study. a, Schematic of the KPC in vivo survival study. Presence of a primary tumor in KPC mice was confirmed by two independent researchers (positive diagnosis) before commencement of daily treatment (Tx) on one of four treatment arms as follows: vehicle, 0.9% saline; Gem, twice-weekly gemcitabine (100 mg kg^−1 i.p.); PXS-5505, daily PXS-5505 at 20 mg kg^−1 i.p.; and PXS-5505 + Gem, daily PXS-5505 at 20 mg kg^−1 i.p. + twice-weekly gemcitabine (100 mg kg^−1 i.p.). b, Table of median survival (since diagnosis/commencement of treatment) across the four treatment groups (n = 30 biologically independent animals (vehicle), n = 31 biologically independent animals (Gem), n = 36 biologically independent animals (PXS-5505), n = 46 biologically independent animals (PXS-5505 + Gem)). c, Kaplan–Meier curves for overall survival across treatment arms (n = 30 biologically independent animals (vehicle), n = 31 biologically independent animals (Gem), n = 36 biologically independent animals (PXS-5505), n = 46 biologically independent animals (PXS-5505 + Gem)). P values determined by log-rank (Mantel–Cox) test. d, Representative maximum intensity projections of SHG multiphoton imaging for tumors from each treatment group (n = 1 FOV taken from one biologically independent animal per group) at end point (scale bars, 100 μm) and quantification of SHG peak signal intensity (n = 5 biologically independent animals per group and five FOV per animal). Data are mean ± s.d. […] Quantification of metastases (n = 18 biologically independent animals (vehicle), n = 18 biologically independent animals (Gem), n = 17 biologically independent animals (PXS-5505), n = 15 biologically independent animals (PXS-5505 + Gem)). Data are mean ± s.d.
We quantified presence of overt metastatic dissemination to organs across the different treatment groups (Fig. 4f).
For the KPC autochthonous model, gemcitabine HCl (Jomar Life Research) or vehicle control (0.9% saline) was administered by i.p. injection twice weekly (100 mg kg^−1 in saline) on day 2 and 4 of the treatment cycle until the end point was reached. GLP-grade PXS-5505 (20 mg kg^−1 in saline) or vehicle (0.9% saline) was administered daily by i.p. injection. Treatment of mice was initiated upon detection of a palpable tumor, verified by two independent researchers and monitoring of mice continued daily until the experimental end point. End points were defined as development of ascites, overnight weight loss >10% of body weight, hunching posture and/or signs of distress and/or suffering, total weight loss ≥20% from maximum body weight or tumor interfering with mobility and access to food and water. The maximal tumor burden allowed by ethics was not exceeded. At the end point, primary tumors and secondary metastatic organs (including liver, small intestine, diaphragm and lungs) were collected and samples were taken for formalin fixation overnight, unconfined compression analysis and snap-frozen for tissue banking. Fixed tissues were processed according to standard histology protocols and paraffin-embedded.

APMA human PDX tumors = assay: APMA human PDX model, picrosirius red birefringence (Extended Data Fig. 5i); assay type: in vivo, mouse; conditions: for Quantification of green birefringent (nascent) collagen fibres: Extended Data 5I, human PDXs at endpoint, individual animals
Description: Subcutaneous PDX studies were performed by implanting early passage PDX pieces (~4 mm^3) or TKCC10 CCs (1.5 × 10^6 cells per mouse in 100 μl PBS/Matrigel 1:1) into female (PDX) or male (TKCC10) 8-week-old immunocompromised nude Balb/c-Fox1nuAusb mice subcutaneously on the left flank. For the duration of the study, mice were kept in conventional caging with environmental enrichment, access to standard chow, water ad libitum and 12-h light–dark cycle at ambient temperature and humidity. Treatment began when tumors reached 150 mm^3, where each mouse was randomized into a treatment group and administered gemcitabine HCl (100 mg kg^−1 in saline) (Jomar Life Research) or vehicle control (0.9% saline) by i.p. injection twice weekly on day 2 and 4 of the treatment cycle until an ethical end point was reached. These included maximal tumor mass ≥10% of body weight, weight loss ≥20% from maximum body weight or tumor interfering with mobility and affecting access to food and water. Animals with non-tumor-related complications that led to a premature end point were censored. […] Tumor size was monitored every second day by calipers. Tumor volume was calculated using the formula (length × width^2)/2. […]
For assessment of picrosirius red staining in KPC and APMA patient tumors, five representative regions of interest per section were analyzed for both brightfield and polarized light by a blinded reviewer using in-house automated analysis scripts as described previously[28],[34],[58] […]
Extended Data Fig. 5 PXS-5505 in combination with gemcitabine in vivo. a. […] Signal is defined as the enzyme activity in the aorta, while noise is measured in the presence of a high concentration (300 µM) BAPN to abolish any lysyl oxidase family activity. […] FITC-dextran (molecular weight: 10 kDa) signal quantification from KPC tumor end point from each treatment group (vehicle n = 3 biologically independent animals, PXS-5505 n = 5 biologically independent animals, Gem n = 5 biologically independent animals, PXS-5505 + Gem n = 5 biologically independent animals). […] P-values determined by Welchs t-test. […]

Row | SMILES | Ascites (number of mice) (KPC mouse model of PDAC) | overt metastatic lesions, Diaphragm (number of mice) (KPC mouse model of PDAC) | overt metastatic lesions, Liver (number of mice) (KPC mouse model of PDAC) | overt metastatic lesions, Lungs (number of mice) (KPC mouse model of PDAC) | overt metastatic lesions, Small intestine (number of mice) (KPC mouse model of PDAC) | Ascites (KPC mouse model of PDAC) | overt metastatic lesions, Diaphragm (KPC mouse model of PDAC) | overt metastatic lesions, Liver (KPC mouse model of PDAC) | overt metastatic lesions, Lungs (KPC mouse model of PDAC) | overt metastatic lesions, Small intestine (KPC mouse model of PDAC) | deposition of collagen I (picrosirius red birefringence) (APMA human PDX tumors; APMA human PDX, three rounds of treatment) | Quantification of green birefringent (nascent) collagen fibres (APMA human PDX tumors)
1 | Nc1ccn([C@@H]2O[C@H](CO)[C@@H](O)C2(F)F)c(=O)n1 [Gem, gemcitabine] | 1/20 | 3/20 | 3/20 | 5/20 | 9/20 | 5% | 15% | 15% | 25% | 45% | increase in the deposition of collagen I | 672.333 and 613 and 417.333 and 643.667 and 776 and 904.333 and 1865.67 and 529.667 and 397.667 and 278
2 | Cl.Cl.NC/C=C(\F)CS(=O)(=O)c1cccc2cccnc12.O [PXS-5505, (Z)-3-fluoro-4-(quinolin-8-ylsulfonyl)but-2-en-1-amine dihydrochloride monohydrate] | 3/23 | 2/23 | 3/23 | 2/23 | 8/23 | 13% | 9% | 13% | 9% | 35% | – | 61.6667 and 1138 and 246 and 184 and 80.3333 and 99.6667 and 1125.33 and 424.667 and 169.333 and 108
